Results on five molecules are retold here after paper PMC3344887 (PLoS ONE, 2012).

One data set is described as follows: clinical. As for the experimental part: Identical placebo (lactose) capsules were prepared. […] Drugs were administered without food.
Plasma concentrations of copeptin were also determined in this study as reported elsewhere. […] No hydrolysis was performed. Thus, the values for HMMA represent the drug concentrations of the non-conjugated metabolite. All blood samples were collected on ice and centrifuged within 10 min at 4°C. The plasma was then stored at –20°C until the analysis.
Cmax and tmax were obtained directly from the observed concentration-time curves. […] Terminal elimination half-life (t 1/2) was calculated using λz and the equation t1/2 = ln2/λz. The area under the plasma concentration-time curve up to 6 h (AUC0-6h) was calculated using the linear trapezoidal rule. The AUC0–∞ was determined by extrapolation of AUC0–6h using λz. The PK parameters were determined using the PK functions for Excel (Microsoft, Redmont, CA, USA). Plasma concentrations were only determined up to 6 h after MDMA administration because the aim of the study was to assess potential changes in MDMA plasma levels while relevant pharmacodynamic effects or MDMA were present.

The target in data set [1] is T1, DAT (Homo sapiens, UniProt Q01959). As to the kind of experiment: cell-based.
The target of data set [2] is T2, NET (Homo sapiens, UniProt P23975). As to the kind of experiment: Radioligand binding, [3H]-nisoxetine, HEK 293 membranes. Set-up: expressed in transfected cells; host or cells: HEK 293 cells (Invitrogen), stably transfected.
The target of data set [3] is T1, DAT. As to the kind of experiment: Radioligand binding, [3H]-WIN35,428, HEK 293 membranes. On the set-up: expressed in transfected cells; host or cells: HEK 293 cells (Invitrogen), stably transfected.
For data set [4], the target named is T2, NET. As to the kind of experiment: [3H]-NE uptake inhibition, method A (silicon oil). In kind it is cell-based. On the set-up: expressed in transfected cells; host or cells: HEK 293 cells (Invitrogen), stably transfected.
In a further data set the test system is NE transporter. As to conditions: no reference given; cited from earlier work.
In another data set the test system is NCCc1c[nH]c2ccc(O)cc12. As to the kind of experiment: cells, lysate or membranes. As to conditions: other: method A.
Substrate in data set [5]: NCCc1ccc(O)c(O)c1
As to the kind of experiment: cells, lysate or membranes. To be noted: other: method A.

Where [6] appears, read: Duloxetine-MDMA session, mean±SEM, n=16.
Setting [7] is: Placebo-MDMA session, mean±SEM, n=16.
Setting [8] is: duloxetine-MDMA vs placebo-MDMA.

T2 sequence (P23975 whole entry): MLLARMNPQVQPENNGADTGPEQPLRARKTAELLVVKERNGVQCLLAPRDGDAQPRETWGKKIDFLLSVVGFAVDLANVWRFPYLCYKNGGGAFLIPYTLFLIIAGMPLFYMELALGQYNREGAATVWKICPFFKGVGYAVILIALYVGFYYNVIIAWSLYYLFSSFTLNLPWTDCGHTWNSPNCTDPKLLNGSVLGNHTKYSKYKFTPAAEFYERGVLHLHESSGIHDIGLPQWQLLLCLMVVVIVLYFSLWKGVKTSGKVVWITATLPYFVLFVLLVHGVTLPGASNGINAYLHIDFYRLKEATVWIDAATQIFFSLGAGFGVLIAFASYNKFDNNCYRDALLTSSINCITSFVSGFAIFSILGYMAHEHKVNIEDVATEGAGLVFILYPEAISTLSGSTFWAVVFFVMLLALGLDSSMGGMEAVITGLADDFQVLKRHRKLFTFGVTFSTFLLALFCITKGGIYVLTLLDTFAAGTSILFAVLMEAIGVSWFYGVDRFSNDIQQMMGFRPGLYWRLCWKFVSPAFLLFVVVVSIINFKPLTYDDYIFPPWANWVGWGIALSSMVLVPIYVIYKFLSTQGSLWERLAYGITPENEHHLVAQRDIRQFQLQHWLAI

`CNC(C)Cc1ccc(O)c(OC)c1` (stereo not shown) [HMMA, 4-hydroxy-3-methoxymethamphetamine] returned a Cmax in the data set “clinical” (Duloxetine-MDMA session (duloxetine 120 mg 16 and 4 h before MDMA 125 mg), plasma, mean±SEM, n=16) of 2.00 ± 0.38 ng/mL. In “clinical” (setting [6]), the AUC0-6 came to 8.14 ± 1.45 ng·h/mL and the Tmax came out at 1.89 ± 0.25 h. The molecule also yielded a Cmax in “clinical” (Placebo-MDMA session (MDMA 125 mg), plasma, mean±SEM, n=16) of 3.36 ± 0.34 ng/mL. Also, in the data set “clinical” (setting [7]), the AUC0-6 was 13.57 ± 1.58 ng·h/mL and the Tmax amounted to 1.84 ± 0.17 h. For the same molecule, in “clinical” (setting [8]), the “Decrease in AUC0-6h by duloxetine” value worked out at 48±6% and the “Decrease in Cmax by duloxetine” value is given as 46±6%.
Take `CC(N)Cc1ccc2c(c1)OCO2` (stereo not shown) [MDA, 3,4-methylenedioxyamphetamine]: the Cmax was found to be 10.7 ± 0.72 ng/mL in “clinical” (human, in vivo) and 11.8 ± 0.7 ng/mL in “clinical” (human, in vivo, 125 mg). Further, the AUC(0-t) in “clinical” (human, in vivo, AUC0-6) came out at 46.6 ± 3.02 ng·h/mL. Moreover, in “clinical” (human, in vivo, Tmax), the Tmax worked out at 5.5 ± 0.22 h. For the same molecule, the Ki on DAT [1] is 11 µM; on NET [2] it was 17.8 ± 4.06 µM; at DAT [3], 26.4 ± 4.24 µM; at NET [4] it was 0.341 µM.
Consider `CNCCCN1c2ccccc2CCc2ccccc21` [desipramine], for which the “Block of thyramine-induced SBP responses” value in the data set on NE transporter is on record as “completely blocked”.
Regarding human SERT (Homo sapiens), the Michaelis-Menten constant (Km) with NCCc1c[nH]c2ccc(O)cc12 stood at 0.489 ± 0.147 µM.

B1: human DAT (Homo sapiens) (protein)
chain: MSKSKCSVGLMSSVVAPAKEPNAVGPKEVELILVKEQNGVQLTSSTLTNPRQSPVEAQDRETWGKKIDFLLSVIGFAVDLANVWRFPYLCYKNGGGAFLVPYLLFMVIAGMPLFYMELALGQFNREGAAGVWKICPILKGVGFTVILISLYVGFFYNVIIAWALHYLFSSFTTELPWIHCNNSWNSPNCSDAHPGDSSGDSSGLNDTFGTTPAAEYFERGVLHLHQSHGIDDLGPPRWQLTACLVLVIVLLYFSLWKGVKTSGKVVWITATMPYVVLTALLLRGVTLPGAIDGIRAYLSVDFYRLCEASVWIDAATQVCFSLGVGFGVLIAFSSYNKFTNNCYRDAIVTTSINSLTSFSSGFVVFSFLGYMAQKHSVPIGDVAKDGPGLIFIIYPEAIATLPLSSAWAVVFFIMLLTLGIDSAMGGMESVITGLIDEFQLLHRHRELFTLFIVLATFLLSLFCVTNGGIYVFTLLDHFAAGTSILFGVLIEAIGVAWFYGVGQFSDDIQQMTGQRPSLYWRLCWKLVSPCFLLFVVVVSIVTFRPPHYGAYIFPDWANALGWVIATSSMAMVPIYAAYKFCSLPGSFREKLAYAIAPEKDRELVDRGEVRQFTLRHWLKV
Turning to B1, the Michaelis constant (Km) in data set [5] is 1.707 ± 0.297 µM.

What is called Cmax is the highest concentration seen after dosing. Broadly, the Tmax is the time from dosing to the highest level. One may read the AUC(0-t) as the area under the concentration-time curve up to a stated or last time point. A lower AUC(0-t) goes with low exposure. Usually Ki stands for a measure of affinity in units of concentration, obtained from inhibition or displacement. A higher Ki goes with weaker binding. One may read the Km as the substrate concentration at which the rate is half of its maximum.
